# Measured values from patent publication US20030229105A1, “Treatment of autoimmune disorders” (Cyclacel Limited, priority 2002, published 2003).
# Legend:
# HIV-1 = experiment: p24 antigen ELISA of supernatants from induced HIV-1 latently infected cells (ACH2, 8E5, U1); assay type: cell-based; settings: for inhibition of HIV-1 replication (p24 in medium): ACH2, 8E5, U1 cells induced with TNF-α (10 ng/ml, 2 h), 10 μM drug, 5 days; for p24 antigen release, time course: ACH2 cells, days 2, 4, 6
# Method: We chose HIV-1 stably integrated cells, lymphocytic ACH2 and 8E5 cell lines, as well as monocytic U1 cells (and their uninfected parental counterparts CEM and U937, respectively) for our initial studies, since viral transcription could be activated and scored through signals, such as Tat, TNF-α or phorbol myristate acetate (PMA) and PHA. We first activated viruses in these cells with TNF-α (10 ng/ml) at 37° C. for 2 h, followed by washing, and then we incubated cells with 10 μM concentrations of each drug. […] We next examined the effect of all three drugs on primary HIV-1 field isolates of SI and NSI strains. Activated PBMC were infected with two independent HIV-1 viral strains of SI (UG/92/029, subtype A envelope) and NSI (THA/92/001, subtype E envelope).
# Five days later, the supernatants were collected, and the amount of newly synthesized HIV-1 was measured by p24 antigen assay. (B) Purified Tat (300 μg) was electroporated into ACH2, 8E5, and U1 cells and subsequently treated with various drugs for 5 days. […] Seven days later samples were collected and used for p19 gag ELISA. (E) PHA-activated PBMC (5×10^6) were infected with HIV-1 either SI (UG/92/029 Uganda strain, subtype A envelope) or NSI (THA/92/001, Thailand strain, subtype E envelope) strains. Unadsorbed viruses were washed after 6 h, and cells were cultured in fresh media with various cdk inhibitors (10 μM). Samples were collected every sixth day and used for p24 gag ELISA assay.
# At days 2, 4, and 6, the supernatants were collected, and the released HIV-1 particles were measured by using a p24 antigen ELISA assay. (B) Twenty micrograms of total RNA was separated on an RNA-formaldehyde-agarose gel, transferred, and probed with full-length labeled HIV-1 genome RNA. The hybridized genomic RNA, singly spliced (structural), and doubly spliced (regulatory) RNAs were exposed and counted by using Molecular Dynamic PhosphorImager software.
# Supernatants from the infected PBMC were collected and used directly for the p24 antigen assay. The p24 gag antigen level was analyzed by using the HIVAG-1 Monoclonal Antibody Kit (Abbott Laboratories, Diagnostics Division). The HTLV-1 p19 core antigen ELISA kit was from Retro-Tek (Cellular Products).
# HIV-1 LTR = experiment: HIV-1 LTR-CAT reporter, basal transcription in CEM cells; assay type: cell-based; settings: ca. 10 μM, 20 h
# Excerpt: We next sought to determine whether the inhibition of HIV-1 transcription, observed above, could be mediated specifically by cdk inhibitors or by general cell cycle inhibitors. To distinguish between the two possibilities, we performed transfection experiments with all three cdk inhibitors tested above and two other well-established cell cycle inhibitors, namely, hydroxyurea and nocodazole. Hydroxyurea blocks DNA replication by inhibiting ribonucleotide reductase and thus arrests cell cycle progression at the G1/S checkpoint, while nocodazole blocks at G2/M by promoting tubulin depolymerization. […] Therefore, the basal transcription of HIV-1 was inhibited by purine analogs and not general cell cycle inhibitors.
# FIG. 3 discloses inhibition of HIV-1 basal and activated transcription by cdk inhibitors. […] The graphs at the bottom of the figure represent the effect of various concentrations of general cell cycle inhibitors (hydroxyurea and nocodazole) on CEM cells. (B) Inhibition of activated transcription in CEM cells was examined using transfected HIV-1 LTR-CAT, together with pcTat plasmid. (C) Experiment similar experiment to that in panel B, except that pcTat plasmid was replaced with E. coli-expressed and purified Tat protein
# Lymphocyte CEM (12D7) cells were grown to mid-log phase and were processed for protein electroporation according to a previously published procedure (24). […]
# PARP = experiment: Immunoblot of PARP cleavage; assay type: cell-based; settings: induced ACH2 cells exposed to Roscovitine
# Excerpt: Apoptosis and necrosis are two pathways that lead to cell death. Apoptosis is characterized by a series of morphological features, including cell shrinkage, plasma membrane blebbing, phosphatidylserine translocation to the outer leaflet of the plasma membrane, nuclear condensation, and DNA fragmentation (1). To distinguish apoptotic from necrotic cells, we performed a flow cytometry experiment using Annexin V and PI double staining. Annexin V is a sensitive probe for phosphatidylserine, and PI was used to detect membrane loss, since membrane loss leads to the accessibility of PI staining to DNA. […] At 48 h after drug treatment, most of the apoptotic cells were found at the late stage of apoptosis and not in the necrotic population (FIG. 6A). We next investigated whether the apoptotic cascade through the caspase-3 pathway was activated under drug treatment. […] Absorbances of the samples were read every 60 min in a Spectramax 250 microplate reader at 405 nm.
# Cells were collected, stained with PI and FITC-Annexin V, and analyzed by FACS. […] The antigen-antibody complexes were detected using ^125I-labeled protein G. (C) Cells were washed in PBS and analyzed for caspase-3 activity using a colorimetric protease assay kit (Chemicon). […] Absorbances of samples were read every 60 min in a microplate reader at 405 nm.
# cdk9-cyclin T complex = cdk9-cyclin T complex (Homo sapiens, UniProt P50750); experiment: cdk9-cyclin T immunoprecipitate CTD kinase assay from treated cells; settings: 10 μM (FIG. 5B)
# Chain of cdk9-cyclin T complex (P50750 whole entry): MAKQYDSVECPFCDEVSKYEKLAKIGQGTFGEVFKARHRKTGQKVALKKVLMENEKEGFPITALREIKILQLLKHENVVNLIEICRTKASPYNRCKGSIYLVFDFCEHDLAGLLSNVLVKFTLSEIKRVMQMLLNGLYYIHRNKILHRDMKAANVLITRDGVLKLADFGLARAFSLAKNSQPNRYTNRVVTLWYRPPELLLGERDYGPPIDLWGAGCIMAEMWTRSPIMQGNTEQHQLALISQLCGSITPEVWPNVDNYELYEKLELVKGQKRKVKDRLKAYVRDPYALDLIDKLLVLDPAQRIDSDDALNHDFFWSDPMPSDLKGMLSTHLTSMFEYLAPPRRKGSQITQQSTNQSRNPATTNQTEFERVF
# Chain of cdk9-cyclin T complex (O60563 whole entry partner): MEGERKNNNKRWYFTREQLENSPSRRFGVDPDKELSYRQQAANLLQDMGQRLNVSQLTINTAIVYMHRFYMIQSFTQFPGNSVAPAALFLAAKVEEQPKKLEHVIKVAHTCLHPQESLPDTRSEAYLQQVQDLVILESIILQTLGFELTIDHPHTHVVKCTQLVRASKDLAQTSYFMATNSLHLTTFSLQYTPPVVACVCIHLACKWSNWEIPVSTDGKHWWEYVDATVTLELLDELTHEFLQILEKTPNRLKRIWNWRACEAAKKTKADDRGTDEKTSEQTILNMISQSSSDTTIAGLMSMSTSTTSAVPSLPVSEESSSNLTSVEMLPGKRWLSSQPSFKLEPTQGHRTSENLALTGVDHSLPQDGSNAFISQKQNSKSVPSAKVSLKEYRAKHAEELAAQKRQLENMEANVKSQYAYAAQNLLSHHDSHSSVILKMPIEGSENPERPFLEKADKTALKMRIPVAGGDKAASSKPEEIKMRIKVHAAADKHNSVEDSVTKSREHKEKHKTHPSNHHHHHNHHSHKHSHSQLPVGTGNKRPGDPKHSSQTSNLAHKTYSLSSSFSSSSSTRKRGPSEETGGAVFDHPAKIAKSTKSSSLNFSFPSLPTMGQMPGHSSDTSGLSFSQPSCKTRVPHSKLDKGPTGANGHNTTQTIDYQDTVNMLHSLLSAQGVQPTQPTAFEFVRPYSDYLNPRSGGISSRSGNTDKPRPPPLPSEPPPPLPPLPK
Compound,inhibition of HIV-1 replication (p24 in medium) (HIV-1),"inhibition of HIV-1 replication (p24), Tat-treated cells (HIV-1; ACH2, 8E5, U1 electroporated with purified Tat, drugs for 5 days)","p24 antigen release, time course (HIV-1; 1 μM)","p24 antigen release, time course (HIV-1; 10 μM)",inhibition of HIV-1 basal transcription (CAT activity) (HIV-1 LTR),PARP cleavage (PARP),cdk9 levels and activity on phosphorylation of RNA Pol II CTD (cdk9-cyclin T complex)
Roscovitine,most effective,best inhibited,no obvious decrease of p24 was apparent,only low levels of viral p24 antigens were detected,dramatic inhibition,almost completely cleaved,decrease of cdk9 levels and its activity
CC(C)[C@H](CO)Nc1nc(Nc2cccc(Cl)c2)c2ncn(C(C)C)c2n1 [Purvalanol A],most effective,–,–,–,dramatic inhibition,–,–
